Data from ChEMBL document CHEMBL3886271, “Method for selectively inhibiting ACAT1 in the treatment of alzheimer's disease” (2015).

target: T1, Sterol O-acyltransferase 2 (Homo sapiens, UniProt O75908); test: Inhibition Assay: Methods for assessing the selectively of ACAT1 inhibitors are known in the art and can be based upon any conventional assay including, but not limited to the determination of the half maximal (50%) inhibitory concentration (IC) of a substance (i.e., 50% IC, or IC50), the binding affinity of the inhibitor (i.e., Ki), and/or the half maximal effective concentration (EC50) of the inhibitor for ACAT1 as compared to ACAT2. See, e.g., Lada, et al. (2004) J. Lipid Res. 45:378-386 and U.S. Pat. No. 5,968,749. ACAT1 and ACAT2 proteins that can be employed in such assays are well-known in the art and set forth, e.g., in GENBANK Accession Nos. NP-000010 (human ACAT1) and NP-005882 (human ACAT2). See also U.S. Pat. No. 5,834,283.
T1 sequence (O75908 whole entry): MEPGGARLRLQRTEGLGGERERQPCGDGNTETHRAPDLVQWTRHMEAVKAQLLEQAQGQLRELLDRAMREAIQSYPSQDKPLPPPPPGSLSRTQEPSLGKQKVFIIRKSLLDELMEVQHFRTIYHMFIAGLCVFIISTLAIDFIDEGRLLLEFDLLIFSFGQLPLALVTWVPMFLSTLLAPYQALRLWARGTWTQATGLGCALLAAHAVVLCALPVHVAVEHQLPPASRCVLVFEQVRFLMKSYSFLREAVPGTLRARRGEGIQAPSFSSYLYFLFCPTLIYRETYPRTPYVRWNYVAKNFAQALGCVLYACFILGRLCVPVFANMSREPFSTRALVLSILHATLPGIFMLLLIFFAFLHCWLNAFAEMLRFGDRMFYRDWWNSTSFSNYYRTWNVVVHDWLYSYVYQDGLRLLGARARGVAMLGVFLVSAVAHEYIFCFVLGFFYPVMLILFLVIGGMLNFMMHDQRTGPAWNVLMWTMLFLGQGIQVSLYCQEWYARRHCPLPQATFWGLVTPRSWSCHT

SMILES	IC50 [µM]
CC(C)c1cccc(C(C)C)c1NC(=O)CC(=O)C(Cc1ccccc1)Cc1ccc(O)cc1 (stereo unspecified)	1.5
CCCC[C@H](C)[C@@H]1CC(=O)N[C@@H](Cc2ccccc2)C(=O)N[C@@H](C)C(=O)N[C@H](CC(C)C)C(=O)O1 [BEAUVERIOLIDE I]	20
CC(C)c1cccc(C(C)C)c1NC(=O)CC(=O)C(Cc1ccccc1)Cc1ccc(OC(=O)CCCCCCN2CCCCCC2=O)cc1 (stereo unspecified)	0.53

Second part, the compound after the results:

IC50 [µM]	SMILES
75	CCCCCCCCC(=O)CNc1cc(-c2ccccc2)nn1-c1ccccc1
53	CCCCCCCC(=O)CNc1cc(-c2ccccc2)nn1-c1ccccc1
97	CCCCCCCCCCNc1cc(-c2ccccc2)nn1-c1ccccc1
